The results in this text go back to patent US11518760B2 (Liverpool School of Tropical Medicine, priority 2017, dated 2022).

This experiment deals with C6/36 Aedes albopictus cell line infected with Wolbachia pipientis (Wolbachia strain wAlbB). Nature of the experiment: In vitro insect cell line assay (anti-Wolbachia screen, SYTO 11 high content imaging). In kind it is cell-based. As to conditions: 168 h; C6/36 Aedes albopictus cells infected with Wolbachia pipientis wAlbB, 7 days incubation, SYTO 11 imaging; read-out: In vitro anti-Wolbachia activity. The procedure, abridged: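 Wolbachia wAlbB-infected C6/36 Aedes albopictus cells were exposed to compounds at a final 5 μM for 7 days at 26 °C, with DMSO-medium wells as untreated controls. Cells were then stained with SYTO 11 for 15 min, imaged by high-content microscopy and scored by texture analysis.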

With `FC1(F)CCN(Cc2nc(NCc3cccnc3C(F)(F)F)c3cccnc3n2)CC1` [Example 228, 2-((4,4-difluoropiperidin-1-yl)methyl)-N-((2-(trifluoromethyl)pyridin-3-yl)methyl)pyrido[2,3-d]pyrimidin-4-amine], the EC50 fell in the range of 0.1 to 1 µM.
In the case of `CC(C)Nc1nc(NCc2cccc(Cl)c2)c2sccc2n1` [Example 18, N^4-(3-chlorobenzyl)-N^2-isopropyithieno[3,2-d]pyrimidine-2,4-diamine] it was 1 to 100 µM; in that of `FC1(F)CC2(CCN(c3nc(NCc4ccccc4C(F)(F)F)c4cccnc4n3)CC2)C1` [Example 260, 2-(2,2-difluoro-7-azaspiro[3.5]nonan-7-yl)-N-(2-(trifluoromethyl)benzyl)pyrido[2,3-d]pyrimidin-4-amine], 0.001 to 0.01 µM; in that of `FC(F)(F)c1ncccc1CNc1nc(CN2CCC(Cl)CC2)nc2ncccc12` [Example 227, 2-((4-chloropiperidin-1-yl)methyl)-N-((2-(trifluoromethyl)pyridin-3-yl)methyl)pyrido[2,3-d]pyrimidin-4-amine], 0.1 to 1 µM.
As for `CS(=O)(=O)c1ccccc1CNc1ncnc2ccsc12` [Example 97, N-(2-(methylsulfonyl)benzyl)thieno[3,2-d]pyrimidin-4-amine], the EC50 fell in the range of 0.1 to 1 µM.
In the case of `CC(C)Nc1nc(NCc2ccc(F)cc2)c2sccc2n1` [Example 15, N^4-(4-fluorobenzyl)-N^2-isopropylthieno[3,2-d]pyrimidine-2,4-diamine] it was 0.1 to 1 µM.
In the case of `CN1CC(Nc2nc(NCc3ccccc3C(F)(F)F)c3cccnc3n2)C1` [Example 142, N^2-(1-methylazetidin-3-yl)-N^4-(2-(trifluoromethyl)benzyl)pyrido[2,3-d]pyrimidine-2,4-diamine], the EC50 lay within 1 to 100 µM.
The figure for `O=C1CCCN1CCCNc1nc(NCc2ccccc2C(F)(F)F)c2sccc2n1` [Example 88, 1-(3-((4-((2-(trifluoromethyl)benzyl)amino)thieno[3,2-d]pyrimidin-2-yl)amino)propyl)pyrrolidin-2-one] is 1 to 100 µM; for `CC(C)Nc1nc(N2CCCN2c2ccccc2C(F)(F)F)c2cccnc2n1` [Example 189, N-isopropyl-4-(2-(2-(trifluoromethyl)phenyl)pyrazolidin-1-yl)pyrido[2,3-d]pyrimidin-2-amine] it is 1 to 100 µM; for `FC1(F)CC2(CCN(c3nc(NCc4cccnc4C(F)(F)F)c4cccnc4n3)CC2)C1` [Example 252, 2-(2,2-difluoro-7-azaspiro[3.5]nonan-7-yl)-N-((2-(trifluoromethyl)pyridin-3-yl)methyl)pyrido[2,3-d]pyrimidin-4-amine] it is 1e-05 to 0.001 µM.
As to `CC(C)N(C)c1nc(N2CCCCC2c2ccccc2C(F)(F)F)c2cccnc2n1` (stereo not drawn) [Example 186, N-isopropyl-N-methyl-4-(2-(2-(trifluoromethyl)phenyl)piperidin-1-yl)pyrido[2,3-d]pyrimidin-2-amine], the EC50 is 1 to 100 µM.
Turning to `FC(F)(F)c1ccccc1CNc1nc(Cl)nc2ccsc12` [Example 46, 2-chloro-N-(2-(trifluoromethyl)benzyl)thieno[3,2-d]pyrimidin-4-amine], the EC50 was in the range of 0.01 to 0.1 µM.
Take `CN(Cc1ccccc1)c1nc(NCCCN2CCCC2=O)c2sccc2n1` [Example 36, 1-(3-((2-(benzyl(methyl)amino)thieno[3,2-d]pyrimidin-4-yl)amino)propyl)pyrrolidin-2-one]: the EC50 is 1 to 100 µM.
`FC(F)(F)c1ncccc1CNc1nc(CN2CC(C(F)(F)F)C2)nc2ncccc12` [Example 231, 2-((3-(trifluoromethyl)azetidin-1-yl)methyl)-N-((2-(trifluoromethyl)pyridin-3-yl)methyl)pyrido[2,3-d]pyrimidin-4-amine]: the EC50 lay in the range of 0.1 to 1 µM.
With `CC1COCCN1c1nc(N2CCC2c2ccccc2C(F)(F)F)c2cccnc2n1` (stereo not drawn) [Example 214, 3-methyl-4-(4-(2-(2-(trifluoromethyl)phenyl)azetidin-1-yl)pyrido[2,3-d]pyrimidin-2-yl)morpholine], the EC50 fell in the range of 1e-05 to 0.001 µM.
For the compound `Cc1nc(N(C)C(C)c2ccccc2C(F)(F)F)c2sc(C3(O)COC3)cc2n1` (stereo not drawn) [Example 76], the EC50 was 1 to 100 µM.
In the case of `CC(C)Nc1nc(NCc2ccc(Cl)cc2)c2sccc2n1` [Example 19, N^4-(4-chlorobenzyl)-N^2-isopropylthieno[3,2-d]pyrimidine-2,4-diamine] it was 1 to 100 µM; in that of `CC(C)Nc1nc(NCc2c(F)cccc2Cl)c2sccc2n1` [Example 30, N^4-(2-chloro-6-fluorobenzyl)-N^2-isopropylthieno[3,2-d]pyrimidine-2,4-diamine], 0.1 to 1 µM.
For `FC1(F)CN(c2nc(NCc3cccnc3C(F)(F)F)c3cccnc3n2)CC(F)(F)O1` [Example 295, 2-(2,2,6,6-tetrafluoromorpholino)-N-((2-(trifluoromethyl)pyridin-3-yl)methyl)pyrido[2,3-d]pyrimidin-4-amine], the EC50 fell in the range of 0.01 to 0.1 µM.
Regarding `CC(C)N(C)c1nc(N(C)Cc2cccnc2C(F)(F)F)c2cccnc2n1` [Example 161, N^2-isopropyl-N^2,N^4-dimethyl-N^4-((2-(trifluoromethyl)pyridin-3-yl)methyl)pyrido[2,3-d]pyrimidine-2,4-diamine], the EC50 lay in the range of 0.001 to 0.01 µM.
In the case of `FC1(F)CCN(c2nc(N3CCC3c3cccnc3C(F)(F)F)c3cccnc3n2)CC1` (stereo not drawn) [Example 218, 2-(4,4-difluoropiperidin-1-yl)-4-(2-(2-(trifluoromethyl)pyridin-3-yl)azetidin-1-yl)pyrido[2,3-d]pyrimidine], the EC50 lay within 1e-05 to 0.001 µM.
With `CC1(C)CCN(c2nc(NCc3cccnc3C(F)(F)F)c3cccnc3n2)CC1` [Example 233, 2-(4,4-dimethyipiperidin-1-yl)-N-((2-(trifluoromethyl)pyridin-3-yl)methyl)pyrido[2,3-d]pyrimidin-4-amine], the EC50 was 0.01 to 0.1 µM.
On to `CC(Nc1ncnc2cc(C#N)sc12)c1ccccc1C(F)(F)F` (stereo not drawn) [Example 102, 4-((1-(2-(trifluoromethyl)phenyl)ethyl)amino)thieno[3,2-d]pyrimidine-6-carbonitrile], for which the EC50 was in the range of 1 to 100 µM.
Regarding `CC(Nc1ncnc2c(Br)csc12)c1ccccc1C(F)(F)F` (stereo not drawn) [Example 106, 7-bromo-N-(1-(2-(trifluoromethyl)phenyl)ethyl)thieno[3,2-d]pyrimidin-4-amine], the EC50 lay in the range of 1 to 100 µM.
Take `FC(F)(F)c1ncccc1CNc1nc(N2CCCC23CCC3)nc2ncccc12` [Example 298]: the EC50 was less than 1e-05 µM.
Turning to `CC(C)N(C)c1nc(N2CCCN2c2ccccc2C(F)(F)F)c2cccnc2n1` [Example 190, N-isopropyl-N-methyl-4-(2-(2-(trifluoromethyl)phenyl)pyrazolidin-1-yl)pyrido[2,3-d]pyrimidin-2-amine], the EC50 fell in the range of 0.1 to 1 µM.
In the case of `CN(Cc1ccccc1C(F)(F)F)c1ncnc2ccsc12` [Example 44, N-methyl-N-(2-(trifluoromethyl)benzyl)thieno[3,2-d]pyrimidin-4-amine] it was 0.01 to 0.1 µM; in that of `C[C@H]1COCCN1c1nc(NCc2ccccc2C(F)(F)F)c2cccnc2n1` [Example 208, (S)-2-(3-methylmorpholino)-N-(2-(trifluoromethyl)benzyl)pyrido[2,3-d]pyrimidin-4-amine], less than 1e-05 µM; in that of `CC(C)Nc1nc(NCc2ccc(F)cc2)c2ccccc2n1` [Example 134, N^4-(4-fluorobenzyl)-N^2-isopropylquinazoline-2,4-diamine], 1 to 100 µM.
On to `FC(F)(F)c1ccccc1CNc1nc(NC2CNC2)nc2ncccc12` [Example 141, N^2-(azetidin-3-yl)-N^4-(2-(trifluoromethyl)benzyl)pyrido[2,3-d]pyrimidine-2,4-diamine], for which the EC50 was 0.1 to 1 µM.
As for `CC1COCCN1c1nc(NCc2cccnc2C(F)(F)F)c2cncnc2n1` (stereo not drawn) [Example 306, 2-(3-methylmorpholino)-N-((2-(trifluoromethyl)pyridin-3-yl)methyl)pyrimido[4,5-d]pyrimidin-4-amine], the EC50 was in the range of 1 to 100 µM.
As to `FC(F)(F)c1ccccc1CNc1nc(N2CCC(Cl)CC2)nc2ncccc12` [Example 198, 2-(4-chloropiperidin-1-yl)-N-(2-(trifluoromethyl)benzyl)pyrido[2,3-d]pyrimidin-4-amine], the EC50 fell in the range of 0.001 to 0.01 µM.
`CN1CCN(c2nc(NCc3ccccc3C(F)(F)F)c3sccc3n2)CC1` [Example 95, 2-(4-methylpiperazin-1-yl)-N-(2-(trifluoromethyl)benzyl)thieno[3,2-d]pyrimidin-4-amine]: the EC50 is 1 to 100 µM.
`CC(C)N(C)c1nc(NCc2cccnc2C(F)(F)F)c2ccccc2n1` [Example 176, N^2-isopropyl-N^2-methyl-N^4-((2-(trifluoromethyl)pyridin-3-yl)methyl)quinazoline-2,4-diamine]: the EC50 was in the range of 0.1 to 1 µM.
The figure for `CN1CC(Nc2nc(NCc3cccnc3C(F)(F)F)c3cccnc3n2)C1` [Example 148, N^2-(1-methylazetidin-3-yl)-N^4-((2-(trifluoromethyl)pyridin-3-yl)methyl)pyrido[2,3-d]pyrimidine-2,4-diamine] is 1 to 100 µM.
Regarding `FC(F)(F)c1ncccc1CNc1nc(N2CCOCC2)nc2ncccc12` [Example 192, 2-morpholino-N-((2-(trifluoromethyl)pyridin-3-yl)methyl)pyrido[2,3-d]pyrimidin-4-amine], the EC50 lay in the range of 0.01 to 0.1 µM.
The figure for `CC(C)Nc1nc(NCCc2ccccc2C(F)(F)F)c2sccc2n1` [Example 45, N^2-isopropyl-N^4-(2-(trifluoromethyl)phenethyl)thieno(3,2-d]pyrimidine-2,4-diamine] is 0.1 to 1 µM; for `CC(C)Nc1nc(N2CCCCC2c2ccccc2C(F)(F)F)c2cccnc2n1` (stereo not drawn) [Example 185, N-isopropyl-4-(2-(2-(trifluoromethyl)phenyl)piperidin-1-yl)pyrido[2,3-d]pyrimidin-2-amine] it is 1 to 100 µM.
Turning to `CCNC(=O)Nc1nc(NCc2cccnc2C(F)(F)F)c2cccnc2n1` [Example 207, 1-ethyl-3-(4-(((2-(trifluoromethyl)pyridin-3-yl)methyl)amino)pyrido[2,3-d]pyrimidin-2-yl)urea], the EC50 was in the range of 0.1 to 1 µM.
